In PubChem BioAssay AID248 (DTP/NCI, 2004):
Values joined by “and” are separate entries in the source; they are usually repeats but may differ in a detail not shown here. Equal entries are not always repeated. Toxic doses and inconclusive results are not listed. Rule as the data show it: active = T/C of 150% or more; inactive = T/C below 125%.

Tested on: L1210 leukemia ip in BDF1 mice, survival T/C
Test: NCI In Vivo Anticancer Drug Screen. Data for tumor model L1210 Leukemia (intraperitoneal) in B6D2F1 (BDF1) mice
Conditions: endpoint: mean survival time, higher = longer survival
Summary of the method: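 Transplantable tumor model; survival measured in treated vs vehicle control mice. Value = treated/control.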

[1] = dose: 12.5 mg/kg/injection, schedule: Q01DX009 (ip), vehicle: saline
[2] = dose: 25.0 mg/kg/injection, schedule: Q01DX009 (ip), vehicle: saline
[3] = dose: 50.0 mg/kg/injection, schedule: Q01DX001 (ip), vehicle: saline
[4] = dose: 100.0 mg/kg/injection, schedule: Q01DX001 (ip), vehicle: saline
[5] = dose: 200.0 mg/kg/injection, schedule: Q01DX001 (ip), vehicle: saline
[6] = dose: 400.0 mg/kg/injection, schedule: Q01DX001 (ip), vehicle: saline
[7] = dose: 100.0 mg/kg/injection, schedule: Q04DX003 (ip), vehicle: saline with Tween-80
[8] = dose: 200.0 mg/kg/injection, schedule: Q04DX003 (ip), vehicle: saline with Tween-80
[9] = dose: 100.0 mg/kg/injection, schedule: Q01DX009 (ip), vehicle: saline with Tween-80
[10] = dose: 200.0 mg/kg/injection, schedule: Q01DX009 (ip), vehicle: saline with Tween-80
[11] = dose: 100.0 mg/kg/injection, schedule: Q04DX002 (ip), vehicle: Klucel (hydroxypropylcellulose) (HPC)
[12] = dose: 200.0 mg/kg/injection, schedule: Q04DX002 (ip), vehicle: Klucel (hydroxypropylcellulose) (HPC)
[13] = dose: 400.0 mg/kg/injection, schedule: Q04DX002 (ip), vehicle: Klucel (hydroxypropylcellulose) (HPC)
[14] = dose: 100.0 mg/kg/injection, schedule: Q01DX009 (ip), vehicle: saline
[15] = dose: 200.0 mg/kg/injection, schedule: Q01DX009 (ip), vehicle: saline
[16] = dose: 400.0 mg/kg/injection, schedule: Q01DX009 (ip), vehicle: saline
[17] = dose: 100.0 mg/kg/injection, schedule: Q04DX003 (ip), vehicle: saline
[18] = dose: 200.0 mg/kg/injection, schedule: Q04DX003 (ip), vehicle: saline
[19] = dose: 400.0 mg/kg/injection, schedule: Q04DX003 (ip), vehicle: saline

Measured: T/C

CC(C)=NN=C(C)C
inactive: dose: 12.5 mg/kg/injection, schedule: Q01DX001 (ip), vehicle: saline 101 % of control | [1] 101 % of control | dose: 25.0 mg/kg/injection, schedule: Q01DX001 (ip), vehicle: saline 99 % of control | [2] 100 % of control | dose: 25.0 mg/kg/injection, schedule: Q04DX003 (ip), vehicle: saline 100 % of control | [3] 111 % of control | dose: 50.0 mg/kg/injection, schedule: Q04DX003 (ip), vehicle: saline 102 % of control | [4] 110 % of control

Cc1csc2ccc([N+](=O)[O-])cc12
inactive: [4] 106 % of control | [5] 101 % of control | [6] 101 % of control

CCOP(=S)(OCC)SC(C)C
inactive: [7] 97 % of control | [8] 97 % of control

COc1ccc(-c2nc3cc(Cl)ccc3c(=O)o2)cc1
inactive: [9] 94 % of control | [10] 94 % of control | dose: 400.0 mg/kg/injection, schedule: Q01DX009 (ip), vehicle: saline with Tween-80 90 % of control

CCCCCCCCC1CCC(N)CC1 (centres undefined)
inactive: dose: 100.0 mg/kg/injection, schedule: Q01DX009 (ip), vehicle: Klucel (hydroxypropylcellulose) (HPC) 95 % of control | dose: 100.0 mg/kg/injection, schedule: Q04DX003 (ip), vehicle: Klucel (hydroxypropylcellulose) (HPC) 95 % of control | dose: 200.0 mg/kg/injection, schedule: Q01DX009 (ip), vehicle: Klucel (hydroxypropylcellulose) (HPC) 93 % of control | dose: 200.0 mg/kg/injection, schedule: Q04DX003 (ip), vehicle: Klucel (hydroxypropylcellulose) (HPC) 101 % of control | dose: 400.0 mg/kg/injection, schedule: Q04DX003 (ip), vehicle: Klucel (hydroxypropylcellulose) (HPC) 98 % of control

C=CC[N+]12CCCC1C(=C)CC2 (centres undefined)
inactive: [1] 106 % of control | [2] 100 % of control | dose: 50.0 mg/kg/injection, schedule: Q01DX009 (ip), vehicle: saline 97 % of control and 106 % of control

O=C(O)C1OC1(c1ccccc1Cl)c1ccccc1Cl (centres undefined)
inactive: [3] 101 % of control | [4] 95 % of control | [5] 98 % of control | [6] 104 % of control

COc1ccc(C(=O)N/N=C/c2cc(OC)ccc2O)cc1
inactive: [11] 110 % of control | [12] 104 % of control | [13] 100 % of control

CC(=O)CCC(C#N)c1ccccc1 (centres undefined)
inactive: dose: 25.0 mg/kg/injection, schedule: Q04DX002 (ip), vehicle: saline 104 % of control | dose: 50.0 mg/kg/injection, schedule: Q04DX002 (ip), vehicle: saline 107 % of control | dose: 100.0 mg/kg/injection, schedule: Q04DX002 (ip), vehicle: saline 93 % of control and 111 % of control

O=S(=O)(Nc1ccccc1F)c1ccc2ccccc2c1
inactive: [14] 93 % of control | [15] 93 % of control | [16] 98 % of control

OC1CCCCCC2CC12 (centres undefined)
inactive: dose: 25.0 mg/kg/injection, schedule: Q01DX005 (ip), vehicle: saline with Tween-80 86 % of control | dose: 25.0 mg/kg/injection, schedule: Q01DX009 (ip), vehicle: saline with Tween-80 98 % of control | dose: 50.0 mg/kg/injection, schedule: Q01DX005 (ip), vehicle: saline with Tween-80 101 % of control | dose: 50.0 mg/kg/injection, schedule: Q01DX009 (ip), vehicle: saline with Tween-80 91 % of control | dose: 100.0 mg/kg/injection, schedule: Q01DX005 (ip), vehicle: saline with Tween-80 89 % of control and 90 % of control | [9] 91 % of control

CC/C(C[n+]1ccccc1)=N\Nc1ccc([N+](=O)[O-])cc1[N+](=O)[O-]
inactive: dose: 5.0 mg/kg/injection, schedule: Q01DX001 (ip), vehicle: acetone 102 % of control | dose: 10.0 mg/kg/injection, schedule: Q01DX001 (ip), vehicle: acetone 100 % of control | dose: 20.0 mg/kg/injection, schedule: Q01DX001 (ip), vehicle: acetone 103 % of control | dose: 20.0 mg/kg/injection, schedule: Q04DX003 (ip), vehicle: saline 103 % of control | dose: 40.0 mg/kg/injection, schedule: Q01DX001 (ip), vehicle: acetone 108 % of control | dose: 40.0 mg/kg/injection, schedule: Q04DX003 (ip), vehicle: saline 95 % of control | dose: 80.0 mg/kg/injection, schedule: Q01DX001 (ip), vehicle: acetone 100 % of control

O=[N+]([O-])c1cccc2cn[nH]c12
inactive: dose: 25.0 mg/kg/injection, schedule: Q04DX002 (ip), vehicle: saline with Tween-80 100 % of control | dose: 50.0 mg/kg/injection, schedule: Q04DX002 (ip), vehicle: saline with Tween-80 110 % of control | dose: 100.0 mg/kg/injection, schedule: Q04DX002 (ip), vehicle: saline with Tween-80 107 % of control and 89 % of control

CC1(C)OC(=O)CC(=O)O1
inactive: [9] 94 % of control | [14] 100 % of control | [17] 91 % of control | [10] 94 % of control | [15] 93 % of control | [18] 91 % of control | [16] 87 % of control | [19] 93 % of control

CC(=O)N=c1cc(-c2ccc(Cl)cc2)ss1
inactive: [7] 90 % of control | [8] 95 % of control | dose: 400.0 mg/kg/injection, schedule: Q04DX003 (ip), vehicle: saline with Tween-80 98 % of control

O=C1C=C(O/C=C/C(C(F)(F)F)C(F)(F)F)C(=O)c2ccccc21
inactive: dose: 6.25 mg/kg/injection, schedule: Q01DX001 (ip), vehicle: Klucel (hydroxypropylcellulose) (HPC) 100 % of control | dose: 6.25 mg/kg/injection, schedule: Q01DX009 (ip), vehicle: Klucel (hydroxypropylcellulose) (HPC) 91 % of control | dose: 12.5 mg/kg/injection, schedule: Q01DX001 (ip), vehicle: Klucel (hydroxypropylcellulose) (HPC) 101 % of control | dose: 12.5 mg/kg/injection, schedule: Q01DX009 (ip), vehicle: Klucel (hydroxypropylcellulose) (HPC) 95 % of control | dose: 25.0 mg/kg/injection, schedule: Q01DX001 (ip), vehicle: Klucel (hydroxypropylcellulose) (HPC) 103 % of control | dose: 50.0 mg/kg/injection, schedule: Q01DX001 (ip), vehicle: Klucel (hydroxypropylcellulose) (HPC) 101 % of control | dose: 75.0 mg/kg/injection, schedule: Q01DX001 (ip), vehicle: Klucel (hydroxypropylcellulose) (HPC) 96 % of control

CC1CN=C(c2ccc(NC(=O)c3ccc(C(=O)Nc4ccc(C5=NCC(C)CN5)cc4)nc3)cc2)NC1 (centres undefined)
active: dose: 4.0 mg/kg/injection, schedule: Q01DX015 (ip), vehicle: water 250 % of control and 288 % of control
inactive: dose: 2.0 mg/kg/injection, schedule: Q01DX001 (ip), vehicle: water 97 % of control and 101 % of control | dose: 4.0 mg/kg/injection, schedule: Q01DX001 (ip), vehicle: water 101 % of control and 106 % of control | dose: 6.0 mg/kg/injection, schedule: Q01DX001 (ip), vehicle: water 106 % of control and 115 % of control

CN(C=O)c1ccc(C(=O)N(C(=O)NC2CCCCC2)C2CCCCC2)cc1
inactive: [4] 98 % of control | [5] 93 % of control | [6] 90 % of control

O=C(N/N=C/c1ccc([N+](=O)[O-])s1)c1ccccc1O
inactive: [17] 94 % of control | [18] 100 % of control | [19] 97 % of control

c1ccc(-c2c3ccccc3c(-c3ccccc3)c3c(-c4ccccc4)c4ccccc4c(-c4ccccc4)c23)cc1
inactive: [11] 95 % of control | [12] 98 % of control | [13] 109 % of control
